Where two headings read alike, the source gives them in different places. Ends that are not written are not given here.
Columns and labels:
[1] = system: peripheral blood CTL of HCMV-seropositive HLA A*0201 donors; type: cell-based, human; details: amidated peptides
Experimental: Sixteen to twenty-four million of the ficoll-separated peripheral blood mononuclear cells were incubated 2-3 hours at 37° C. in a 5% CO2 incubator with 100 μM HCMV PP65495-503 peptide (SEQ ID NO: 1) in a volume of 100 μl of T cell culture medium (IVSTCM). IVSTCM consists of RPMI-1640 supplemented with 20% heat inactivated HAB serum, 10 IU/ml r-IL2 (Chiron™, Emeryville, Calif.); 25 mM Hepes Buffer Solution, 50 U/ml penicillin, 50 μg/ml streptomycin, 2 mM L-glutamine and 0.5 mM sodium pyruvate (Gibco™, Rockville, Md.). […] After the incubation period, the cells, now presenting pp65495-503 were resuspended in 2 ml IVSTCM, and γ-irradiated (2,400 rads) using the Isomedic Model 19 Gammator (Nuclear Canada, Parsippany, N.J.).
During the peptide incorporation procedure, an additional aliquot of 10-20 million cells from the same freshly separated peripheral blood mononuclear cells was depleted of CD4^+, CD16^+ and CD56^+ cells as follows. […] The resulting population was >80% CD8^+ as determined using a FAGSCalbur™ fluorescence activated cell sorter (BD Immunocytomeyry Systems™, Palo Alto, Calif.). […]
Peripheral blood from separate individuals was stimulated with peptides 115, 118, and 193 and subjected to a chromium release assay. […] Lymphocytes from three individuals were used for all four peptides, including SEQ ID NO:1, and one individual was evaluated with 193 peptide and the positive control.

T cell clone 3-3F4 [2] = assay: Flow-cytometric HLA A2-Ig dimer binding to T cell clone 3-3F4; parameters: species or system human; details: specific fluorescence, peptide-loaded HLA A2-Ig dimers
Experimental: HLA A2-Ig dimer aliquots were individually loaded with a series of peptides, and incubated with two different T cell clones, 3-3F4 and VB57. The soluble HLA-A2-Ig complexes (HLA dimers) were loaded with peptide according to the methods of Greten et al., Proc. Natl. Acad. Sci. USA 95:7568-7573 (1998). For each peptide analog to be tested, 10 μg of HLA dimers in 10 μl PBS containing 0.02% NaN3 (Baker Chemical™, Phillipsburg, N.J.) was incubated for three days at 4° C. with 660-fold molar excess peptide. Dimers also were loaded with the pp65495-503 native peptide, an irrelevant peptide (pp54 B*0702 epitope), and 2 μl PBS buffer containing 0.02% NaN3, in all experiments to serve as controls. One microgram aliquots of peptide loaded dimers were mixed with 0.2 million of either T cell clone 3-3F4 or VB57 for 75 minutes on ice. Cells were washed in PBS containing 2% FBS and 0.02% NaN3 (WB), and subsequently stained with 0.9 μl/sample of goat anti-mouse IgG1-PE (Caltag™, Burlingame, Calif.). After two additional washings in WB, cells were analyzed by fluorescence-activated cell sorting (FACSCalibur™). Specific fluorescence was calculated as fluorescence ratio between the mean fluorescence of the peptide-loaded diners and the mean fluorescence of the buffer-loaded control diners. Peptides names ending in N are amidated, while those ending in C are free acids. Each peptide-loaded diner complex was tested at least twice with two different T cell clones (3-3F4 and VB57). The fluorescence indices indicated in the Figure are an average of both experiments.

[3] = system: T cell clones from HLA A*0201 individuals seropositive for HCMV; details: for recognition by T cell clones other than 3-3F4: four additional T cell clones from different HCMV-seropositive volunteers, up to 5 nM; for T cell clones giving greater specific cytotoxicity at a lower concentration than the native sequence: five T cell clones, EBVLCL targets sensitized at 5.0 or 0.5 nM
Experimental: Chromium release assays were performed according to the methods of (20). Briefly, target cell lines (antigen presenting cells which present pp65495-503) were labeled for one hour with 200 μCi/ml ^51Cr (ICN™, Costa Mesa, Calif.). HCMV infected targets were prepared as follows. Five-hundred thousand fibroblasts were pretreated with 800 U/10^6 recombinant IFN-γ, (Preprotech™, Rocky Hill, N.J.) to upregulate MHC class I expression and HCMV was added at an m.o.i. of 4. Cells were incubated with virus for two hours at 37° C., in a 5% CO2 incubator. Fresh FBM containing IFN-γ was then added and the cells incubated for an additional 14 hours. Infected fibroblasts were trypsinized, labeled with ^51Cr as described above and used in the assay at an effector-to-target ratio (E/T) of 50 and 10. Epstein-Barr virus transformed B cell lines (EBVLCL) were generated following standard technology using the supernatant of EBV-infected marmoset cells. EBVLCL were grown in medium consisting of RPMI-1640 (Gibco™, Rockville, Md.) supplemented with 10% FBS, 10 mM Hepes Buffer Solution (Irvine Scientific™, Santa Ana, Calif.), penicillin, streptomycin and L-glutamine as described for fibroblast medium. The cells used as targets were prepared by pulsing with […] pp65495-503 peptide, and used at an E/T of 25 and 5. For PS-SCL screening and titration of analog peptides, T2 cells, maintained as described in Diamond et al., Blood 90:1751-1767 (1997), were pulsed with serial peptide dilutions for use as targets for T cell clone effectors at an E/T of 5.
(§1) In the assay, loaded targets and effectors were mixed in culture and incubated for four hours, at which time chromium release was measured. Supernatants were collected on filter frames (Skatron™, Oslo, Norway) and radioactivity determined in a Cobra II gamma counter (Packard™, Meriden, Conn.). For each assay, spontaneous release from the target cells in the absence of effector CTL and maximum possible release after treatment with 2% SDS (Baker Chemicals™, Phillipsburg, N.J.) was determined. Specific cytotoxicity was defined as: 100×[(Re−Rs)/Max−Rs)], where Re=experimental release, and Rs=spontaneous release.
The T cell clones were stimulated in vitro with the native sequence of pp65495-503 (SEQ ID NO:1) as described in Example 2.

T cell clone 3-3F4 [4] = assay: Chromium release assay, peptide-sensitized targets lysed by T cell clone 3-3F4; type: cell-based, human; details: for Conc. (nM): concentration of peptide in which specific killing was between 15 and 30 percent: HLA A*0201-restricted EBVLCL targets, 3-3F4 effectors, E:T=5, 10-fold dilutions 500-0.00005 nM; for recognition by T cell clone 3-3F4 (in words): chromium release assay; for Peptide Concentration (nM), Amide, 3-3F4: carboxyl terminal amide peptide, chromium release, T cell clone 3-3F4
Experimental: Nonamer peptides with the substitutions as shown at each position were synthesized as described in Example 1. […] Results of these assays are shown in the right-hand column of Table II, in terms of concentration of peptide (nM) in which specific killing was between 15 and 30 percent. Results presented are the average from at least three independent experiments carried out on different days using different batches of T cell […]. Peptides were tested using 10-fold dilutions, ranging from 500-0.00005 nM.
(§2) To take advantage of the increased immunogenicity of peptides 44 and 46, while maintaining the universal recognition of the native peptide, library-directed changes were made to peptides 44 and 46, substituting back the native amino acids. A series of 21 peptides were constructed based upon the sequence of the tetra-substituted peptides 44 and 46 in each of the carboxyl terminal amidated and free acid forms. The peptides contained single, double, or triple substitutions of amino acids of the native sequence at the positions indicated. These peptides were assayed utilizing a standard chromium release assay with the screening T cell clone, 3-3F4, and a representative T cell clone (VB57) from another individual expressing a different T cell receptor.

HLA A*0201 = target: T1, HLA A*0201 (Homo sapiens, UniProt P04439, D140Y/D185E/D98H/E176V/E277Q/G131W/G231S/I119V/I121R/I166T/I218V/L300P/L318F/N151K/N90K/P208A/P217A/Q86G/Q94H/R138H/R169H/T345S); assay: T2 assembly assay (MHC binding affinity); details: for difference between acid and amide forms in binding to HLA A*0201: T2 assembly assay; for MHC affinity (fluorescence ratio) by T2 assembly assay: T2 cells, 100 μM peptide overnight, mAb BB7.2
T1 construct: endogenous in cells; host or cells: T2 cells (TAP-deficient); β2-microglobulin purchased from Sigma, catalogue number not given
Experimental: See the methods of Nijman et al., Eur. J. Immunol. 23:1215-1219 (1993).
For each analog to be tested, 250,000 T2 cells were washed twice and resuspended in serum free IMDM and incubated overnight with 100 μM peptide together with 15 μg/ml human β2-microglobulin (Sigma™, Lt. Louis, Mo.) at 37° C. in a 5% CO2 incubator. […] After washing twice with cold buffer, FITC-conjugated rat anti-mouse IgG2a/2b (1:40 dilution; Pharmingen™, San Diego, Calif.) was added and incubated for another 30 minutes at 4° C. The cells were washed twice in cold buffer, and mean fluorescence intensity (MFI) of 10^4 gated cells was measured using a FACSCalibur™.
Fluorescence ratio is defined as mean fluorescence with peptide/mean fluorescence without peptide. Results for the amidated peptides indicate only slight changes in MHC binding.

T cell clone 3-3F4 [5] = assay: PS-SCL screen and simultaneous native peptide titration, T2 cells, T cell clone 3-3F4; type: cell-based, human; details: E:T 5, read-out: concentration sensitizing 50% maximal lysis of T2 cells by 3-3F4
Experimental: Chromium release assays were performed according to the methods of (20). Briefly, target cell lines (antigen presenting cells which present pp65495-503) were labeled for one hour with 200 μCi/ml ^51Cr (ICN™, Costa Mesa, Calif.). HCMV infected targets were prepared as follows. Five-hundred thousand fibroblasts were pretreated with 800 U/10^6 recombinant IFN-γ, (Preprotech™, Rocky Hill, N.J.) to upregulate MHC class I expression and HCMV was added at an m.o.i. of 4. Cells were incubated with virus for two hours at 37° C., in a 5% CO2 incubator. Fresh FBM containing IFN-γ was then added and the cells incubated for an additional 14 hours. Infected fibroblasts were trypsinized, labeled with ^51Cr as described above and used in the assay at an effector-to-target ratio (E/T) of 50 and 10. […]
as §1, with “Specific cytotoxicity was defined as: 100×[(Re−Rs)/Max−Rs)], where Re=experimental release, and Rs=spontaneous release.” left out

T cell clone VB57 = assay: Chromium release assay, peptide-sensitized targets lysed by T cell clone VB57; type: cell-based, human; details: carboxyl terminal amide peptide
Excerpt: as §2

For YLLPMVTSV-NH2 [Peptide 46N], the “recognition by individuals' peripheral blood T cells after in vitro stimulation with the peptide” value [1] was “only T cells from the individual from whom the PS-SCL screen clone was derived showed any positive response”, the “HLA-Ig dimer binding to T cell clone 3-3F4” value (“HLA-Ig dimer binding” for short) (T cell clone 3-3F4 [2]) was “poor binders” and the “recognition by T cell clones other than 3-3F4” value [3] was “No T cell clone other than 3-3F4 recognized”. The “recognition by T cell clones other than 3-3F4” value ([3]; listed as 46) was “not recognized by any of the T cell clones in the cohort”, the “Conc. (nM): concentration of peptide in which specific killing was between 15 and 30 percent” value (T cell clone 3-3F4 [4]) was 0.0005 nM and the “recognition by T cell clone 3-3F4 (in words)” value (T cell clone 3-3F4 [4]) was “better recognized than the native epitope sequence”. The “difference between acid and amide forms in binding to HLA A*0201” value (HLA A*0201) was “substantial binding differences” and the “MHC affinity (fluorescence ratio) by T2 assembly assay” value (HLA A*0201) was “not dramatically different from the native sequence”.

In the case of YLLPMVVSV-NH2 [Peptide 44N], the “recognition by individuals' peripheral blood T cells after in vitro stimulation with the peptide” value [1] is reported as “only T cells from the individual from whom the PS-SCL screen clone was derived showed any positive response”, the “HLA-Ig dimer binding” value (T cell clone 3-3F4 [2]) is reported as “poor binders” and the “recognition by T cell clones other than 3-3F4” value [3] is reported as “No T cell clone other than 3-3F4 recognized”. For the same substance, the “recognition by T cell clones other than 3-3F4” value ([3]; listed as 44) was “not recognized by any of the T cell clones in the cohort”, the “Conc. (nM): concentration of peptide in which specific killing was between 15 and 30 percent” value (T cell clone 3-3F4 [4]) was 0.00005 nM and the “recognition by T cell clone 3-3F4 (in words)” value (T cell clone 3-3F4 [4]) was “better recognized than the native epitope sequence”. The “difference between acid and amide forms in binding to HLA A*0201” value (HLA A*0201) was “substantial binding differences” and the “MHC affinity (fluorescence ratio) by T2 assembly assay” value (HLA A*0201) was “not dramatically different from the native sequence”.

YLVPMVASV-NH2 [Peptide 115N] was tested, and the “T cell clones giving greater specific cytotoxicity at a lower concentration than the native sequence” value [3] was “two out of five”.

For NLLPMVASV-NH2 [Peptide 118N], the “T cell clones giving greater specific cytotoxicity at a lower concentration than the native sequence” value [3] was “three out of five”.

In the case of “NLVPMVATV [Peptide A7C, reference compound]”, the “HLA-Ig dimer binding” value (T cell clone 3-3F4 [2]) is reported as “bound well”, the EC50 (T cell clone 3-3F4 [5]) is reported as 0.02 nM and the “Conc. (nM): concentration of peptide in which specific killing was between 15 and 30 percent” value (T cell clone 3-3F4 [4]) is reported as 0.5 nM.

For YLVPMVATV-NH2 [Peptide 193N], the “T cell clones giving greater specific cytotoxicity at a lower concentration than the native sequence” value [3] was “two out of five”.

In the case of “126N: nonamer NLLPMVVSV amide, SEQ ID NO 65 (NLLPMVVSV-NH2) [Peptide 126N]”, the “Peptide Concentration (nM), Amide, VB57” value (T cell clone VB57) is reported as 0.5 nM and the “Peptide Concentration (nM), Amide, 3-3F4” value (T cell clone 3-3F4 [4]) is reported as 0.005 nM.

For “121N: nonamer YLLPMVVTV amide, SEQ ID NO 73 (YLLPMVVTV-NH2) [Peptide 121N]”, the “Peptide Concentration (nM), Amide, VB57” value (T cell clone VB57) was greater than 5 nM and the “Peptide Concentration (nM), Amide, 3-3F4” value (T cell clone 3-3F4 [4]) was 5 nM.

Reference: patent publication US6951651B2, “CTL epitope analogs” (priority 1999, dated 2005)
